{
  "source": "patent US20250381256A1",
  "about": "(priority 2022, published 2025)",
  "key": {"[1]": {"system": "CFT073 uropathogenic E. coli", "test": "Transurethral infection model with CFT073", "details": "5×10^7 CFU CFT073, vs control OVA vaccine", "quoted_text": "Bacterial Culture and Challenge Model. The uropathogenic E. coli strain CFT073 was purchased from ATCC (700928); this strain was originally isolated from a pyelonephritis patient. CFT073 was cultured at 37° C. with aeration in Luria broth (10 g/L tryptone, 5 g/L yeast extract, 10 g/L sodium chloride) at a 1:100 dilution from a starter culture.\nFor the transurethral infection model, water supply was removed from cages for one hour prior to infection to allow for voiding of bladder. Mice were sedated with an i.p. injection of a ketamine/xylazine cocktail and a sterilized plastic needle dabbed in surgical lubricant was used to deliver 5×10^7 CFU of CFT073 into the urethra. Mice were monitored as for the bacteremia model, but with sacrifice at 48 h."}, "gut microbiome": {"system": "gut microbiome", "test": "Microbiome analysis of fecal pellets (16S rRNA sequencing)", "type": "in vivo, C57BL/6 mice", "protocol": "Microbiome Analysis. Fecal pellets were collected from mice and immediately frozen on dry ice prior to storage at −80° C. Samples were submitted to the Duke Center for Genomic and Computational Biology Microbiome Shared Resource core for microbiome analyses. In brief, the Duke Microbiome Core Facility (MCF) extracted DNA using the Qiagen PowerSoilPro DNA Kit (Qiagen, 47014). Bacterial community composition in isolated DNA samples was characterized by amplification of the V4 variable region of the 16S rRNA gene by polymerase chain reaction using the forward primer 515 and reverse primer 806 following the Earth Microbiome Project protocol (http://www.earthmicrobiome.org/). These primers (515F and 806R) carry unique barcodes that allow for multiplexed sequencing. Concentration of the PCR products were accessed using a Qubit dsDNA HS assay kit (ThermoFisher, Q32854) and a Promega GloMax plate reader. Equimolar 16S rRNA PCR products from all samples were pooled prior to sequencing, which was performed by the Duke Sequencing and Genomic Technologies (SGT) shared resource on an Illumina MiSeq instrument configured for 250 base-pair paired-end sequencing runs.\nSequences were analyzed using QIIME2 software. Demultiplexed forward reads were assigned a cut off between 10-230 bp and reverse reads were assigned a cut off between 10-160 bp. […]"}, "OVA323-339": {"system": "OVA323-339", "test": "Anti-OVA antibody responses after sublingual nanofiber immunization of mice", "type": "in vivo"}, "[2]": {"system": "1:1:1 mixture of plreA, plutA, and plroN", "test": "Urinary antibody ELISA on undiluted urine of immunized mice", "details": "one nanofiber and three nanofiber groups combined", "quoted_text": "Animals and Immunizations. […] Murine immunizations were initiated with female C57BL/6 mice (Envigo) aged 9-12 weeks. For sublingual immunizations, mice were deeply anesthetized by a cocktail delivering 100 mg/kg ketamine and 10 mg/kg xylazine. For droplet immunizations, a micropipette with a 20 μL tip was used to apply 8 μL of the immunizing solution below the tongue. For tablet immunizations, the tablet was placed below the tongue of anesthetized mice using tweezers. For droplet and tablet immunizations, the mouse's heads were placed in anteflexion for 20 min following administration to prevent swallowing of the material.\nMeasurement of Antibody Responses. Serum was collected via the submandibular vein. For analysis of epitope-specific IgG by ELISA, plates were coated with 20 μg/mL of streptavidin (Millipore Sigma, 189730) overnight at 4° C. Plates were washed with 0.5 g/L Tween-20 in PBS (1×PBST), coated for 1 hour with 20 μg/mL biotinylated plreA, pluta, or plroN, and blocked with Super Block Blocking Buffer (Thermo Scientific, 37515). […] Sera diluted in PBST-BSA or undiluted urine were added to the plate, and antigen-specific IgG was detected by horseradish peroxidase (HRP) conjugated Fcγ fragment specific goat anti-mouse IgG (Jackson Immuno Research, 15-035-071). […]"}, "I-Ab": {"target": "T1, I-Ab (Mus musculus, UniProt P14434+P14483)", "T1 sequence (P14434 24-256)": "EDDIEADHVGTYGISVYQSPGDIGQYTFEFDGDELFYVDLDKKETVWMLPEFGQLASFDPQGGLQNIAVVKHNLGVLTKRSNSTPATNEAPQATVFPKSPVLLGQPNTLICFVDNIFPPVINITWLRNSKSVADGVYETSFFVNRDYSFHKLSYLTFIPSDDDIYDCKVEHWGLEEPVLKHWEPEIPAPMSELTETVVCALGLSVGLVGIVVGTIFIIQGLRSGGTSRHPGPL", "T1 sequence (P14483 28-265)": "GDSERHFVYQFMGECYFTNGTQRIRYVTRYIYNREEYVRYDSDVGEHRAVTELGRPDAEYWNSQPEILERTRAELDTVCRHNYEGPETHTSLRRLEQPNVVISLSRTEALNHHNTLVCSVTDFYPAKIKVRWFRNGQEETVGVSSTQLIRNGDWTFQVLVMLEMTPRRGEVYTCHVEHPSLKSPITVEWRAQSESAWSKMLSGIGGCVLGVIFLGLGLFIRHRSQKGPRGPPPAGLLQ", "details": "haplotype of C57BL/6 mice; read-out: Reported affinity for I-Ab; cited from earlier work"}, "[3]": {"test": "Nanofiber structure after freeze-drying, tabletization and dissolution (atomic force microscopy)", "type": "physicochemical", "details": "various levels of cryoprotectant sugars", "protocol": "FIG. 16. SIMPL tablets incorporating Coil29-based nanofibers. Top panel: epitope-containing peptide nanofibers were assembled in buffer, then cryoprotectant sugars were added, and tablets were formed by freeze drying. Bottom panel: Tablets were stable enough for handling (left), and Coil29 nanofibers retained their structure after freeze-drying, tabletization, and dissolution (images by atomic force microscopy)."}},
  "note": "“Also recorded” adds a separate entry of the source. Square brackets hold non-standard residues; d marks the D form. Ends that are not written are not given here. Cha = N[C@@H](CC1CCCCC1)C(=O)O",
  "data": [
    {"compound": "C[C@@H]1O[C@@H]1P(=O)(O)O", "note": "[Fosfomycin]", "values": [
      {"measurement": "Body temperature after transurethral challenge", "setting": "[1]", "value": "maintained significantly higher temperatures than mice given the control vaccine"},
      {"measurement": "OTU richness of the microbiome", "setting": "gut microbiome; week 13 (vaccine) or week 13.5 (after 3 daily doses of 1000 mg/kg Fosfomycin)", "value": "drastically reduced"},
      {"measurement": "Shannon diversity index (α-diversity)", "setting": "gut microbiome; week 13 (vaccine) or week 13.5 (antibiotic)", "value": "highly significantly different from these groups"}
    ]},
    {"compound": "Nc1ncnc2c1ncn2[C@@H]1O[C@@H]2COP(=O)(O)O[C@H]3[C@@H](O)[C@H](n4cnc5c(N)ncnc54)O[C@@H]3COP(=O)(O)O[C@H]2[C@H]1O", "note": "[cyclic-di-AMP]", "values": [
      {"measurement": "Serum IgG titers at reduced adjuvant dose", "setting": "OVA323-339; 1 μg c-di-AMP with 8 μL of 5 mM OVA-Coil29, sublingual", "value": "equivalent titers to 10 times that dose; also recorded: sufficient to raise strong titers"},
      {"measurement": "Epitope-specific IgA levels in the urine, adjuvant comparison", "setting": "[2]; cyclic-di-AMP vs CTB (p=0.038)", "value": "significantly higher epitope-specific IgA levels in the urine than CTB"},
      {"measurement": "Epitope-specific IgG levels in the urine, adjuvant comparison", "setting": "[2]; cyclic-di-AMP vs CTB (p=0.38)", "value": "did not differ significantly"}
    ]},
    {"compound": "PADRE ([dA]K[Cha]VAAWTLKA[dA]) [aKXVAAWTLKAa]", "values": [
      {"measurement": "Kd", "setting": "I-Ab", "value": 94, "unit": "nM"}
    ]},
    {"compound": "QARILEADAEILRAYARILEAHAEILRAQ (Ac-QARILEADAEILRAYARILEAHAEILRAQ-NH2) [Coil29]", "values": [
      {"measurement": "Sublingual immunogenicity after tabletization", "setting": "OVA323-339; SIMPL tablets, range of peptide and cryoprotectant sugar concentrations, 10 μg c-di-AMP", "value": "sublingually immunogenic"},
      {"measurement": "Sublingual immunogenicity", "setting": "OVA323-339; mouse models, Coil29 nanofibers, liquid formulations", "value": "did not depend on PASylation for immunogenicity"},
      {"measurement": "Nanofibrillar structure in tablets", "setting": "[3]", "value": "retained their nanofibrillar structure"}
    ]},
    {"compound": "QLVFNSISARALKAY [VAC]", "values": [
      {"measurement": "Kd", "setting": "I-Ab", "value": 13.5, "unit": "nM"}
    ]}
  ]
}
